Data taken from ChEMBL document CHEMBL1157193, “Synthesis and anti-Trypanosoma cruzi activity of derivatives from nor-lapachones and lapachones” (Bioorg Med Chem, 2008).

Test system: Trypanosoma cruzi
Assay: Trypanocidal activity against Trypanosoma cruzi Y blood stream trypomastigotes after 24 hrs
Type: functional, organism-based

SMILES	IC50
Cc1ccc(C)c(NC2C3=C(OC2(C)C)c2ccccc2C(=O)C3=O)c1 (stereo not drawn)	1760 µM
CC1(C)OC2=C(C(=O)C(=O)c3ccccc32)C1Nc1ccc(Cl)cc1 (stereo not drawn)	384 µM
CC1(C)OC2=C(C(=O)C(=O)c3ccccc32)C1O (stereo not drawn)	212 µM
CC1(C)OC2=C(C(=O)C(=O)c3ccccc32)C1Nc1cccc([N+](=O)[O-])c1 (stereo not drawn)	86.3 µM
CC1(C)CCC2=C(O1)C(=O)c1ccccc1C2=O [ALPHA-LAPACHONE]	> 4800 µM
CC1(C)OC2=C(C(=O)C(=O)c3ccccc32)C1Nc1cccc(Br)c1 (stereo not drawn)	141 µM
CC1(C)OC2=C(C(=O)c3ccccc3C2=O)C1Nc1ccccc1 (stereo not drawn)	> 4000 µM
CC1(C)OC2=C(C(=O)C(=O)c3ccccc32)C1Nc1ccc(F)cc1 (stereo not drawn)	2520 µM
CC1(C)OC2=C(C(=O)C(=O)c3ccccc32)C1Nc1cccc(Cl)c1 (stereo not drawn)	333 µM
CC1(C)CC2=C(O1)C(=O)c1ccccc1C2=O	> 4800 µM
CC1(C)CC2=C(O1)C1(CO1)c1ccccc1C2=O (stereo not drawn)	> 4000 µM
CC1(C)OC2=C(C(=O)c3ccccc3C2=O)C1N=[N+]=[N-] (stereo not drawn)	179 µM
CC1(C)CC(Nc2ccccc2)C2=C(O1)C(=O)c1ccccc1C2=O (stereo not drawn)	342 µM
COc1ccc(NC2C3=C(OC2(C)C)c2ccccc2C(=O)C3=O)cc1 (stereo not drawn)	88.2 µM
CC1(C)OC2=C(C(=O)C(=O)c3ccccc32)C1Nc1ccc(Br)cc1 (stereo not drawn)	952 µM
CC1(C)OC2=C(C(=O)C(=O)c3ccccc32)C1Nc1ccc([N+](=O)[O-])cc1 (stereo not drawn)	857 µM
CC(C)=CCC1=C(O)C(=O)c2ccccc2C1=O [LAPACHOL]	411 µM
CC1(C)OC2=C(C(=O)C(=O)c3ccccc32)C1Nc1cccc(F)c1 (stereo not drawn)	> 4000 µM
